Data: patent publication US10072023B2, “Diarylethene compounds and uses thereof” (SWITCH MATERIALS, INC., priority 2011, dated 2018)
Blank lines part the entries; values can stand above or below the molecule they belong to.

Assay: Absorbance at photostationary state (PSS) under simulated sunlight or 365 nm light
Assay type: physicochemical
Design: λ max: unit not given here
Details: for Absorbance at PSS, 365 nm: 365 nm light source; for Absorbance at PSS, 365 nm / Absorbance at PSS, full / Absorbance at PSS, +UV / λ max: 2.0×10^−5 M in triglyme; for sensitivity index: ratio of PSS under 365 nm light to PSS under full spectrum light (without UV blocking film); for Absorbance at PSS, full: simulated sunlight (QSUN solar simulator), no UV blocking film; for Absorbance at PSS, +UV: simulated sunlight with UV blocking film (cutoff 370 nm); for λ max: wavelength of maximum absorbance in the visible range, ring-closed isoform
Method: Absorbance at a PSS for selected compounds was measured at 2.0×10^−5 M in triglyme in the absence (full) or presence (+UV) of a UV blocking film with a UV cutoff wavelength of 370 nm (10% transmission at 370 nm), using simulated sunlight (QSUN solar simulator) as a light source, or a 365 nm light source; these PSS are reported in Tables 1.5. […] “Switch” refers to the ability (yes or no) of the compound to be reversibly converted under photochromic and electrochromic conditions between a ring-open isomer and ring-closed isomer.
A sensitivity index (SI) is a ratio of the PSS under 365 nm light to the PSS under full spectrum light (without UV blocking film). SI is an indicator of the sensitivity of the compound to the composition of the incident light (a change in the ratio of UV and visible components)—photochemical ring-opening is induced by a portion of the visible light spectrum.
Photostationary State (PSS) UV/Vis spectra are obtained using an OceanOptics™ Spectrophotometer until absorption in the visible region of the spectrum stabilizes. A 2×10^−5M solution of compound in solvent is prepared, and photofaded using visible light until absorption in the visible region of the spectrum stabilizes. The sample is then irradiated with simulated sunlight (QSUN SS-150 Solar Simulator with xenon arc lamp) until the absorption spectrum stabilizes. To obtain PSS in the presence of a UV blocking film, a second sample is prepared and irradiated as described, with a UV blocking film inserted in the light path when irradiating.

Compound: N#Cc1ccc(-c2ccc(-c3cc(C4=C(c5cc(-c6ccc(-c7ccc(C#N)s7)s6)sc5-c5cccs5)C(F)(F)C(F)(F)C4(F)F)c(-c4cccs4)s3)s2)s1 [S037, 4″,4″″″-(perfluorocyclopent-1-ene-1,2-diyl)bis(([2,2′:5′,2″:5″,2″′-quaterthiophene]-5-carbonitrile))]
Absorbance at PSS, 365 nm: 0.442 | sensitivity index: 1.18 | Absorbance at PSS, full: 0.375 | Absorbance at PSS, +UV: 0.355 | λ max: 680

Compound: FC1(F)C(c2cc(-c3ccc(/C=C/c4ccccc4)s3)sc2-c2cccs2)=C(c2cc(-c3ccc(/C=C/c4ccccc4)s3)sc2-c2cccs2)C(F)(F)C1(F)F [S038, (E)-4′,4″″-(perfluorocyclopent-1-ene-1,2-diyl)bis(5-((E)-styryl)-2,2′:5′,2″-terthiophene)]
Absorbance at PSS, 365 nm: 0.642 | sensitivity index: 1.41 | Absorbance at PSS, full: 0.456 | Absorbance at PSS, +UV: 0.431 | λ max: 690

Absorbance at PSS, 365 nm: 0.191 | sensitivity index: 4.55 | Absorbance at PSS, full: 0.042 | Absorbance at PSS, +UV: 0.008 | λ max: 640
Compound: c1ccc(-c2cc(-c3nc(-c4ccccc4)sc3-c3cc(-c4ccccc4)sc3-c3ccccc3)c(-c3ccccc3)s2)cc1 [S055, 4,5-bis(2,5-diphenylthiophen-3-yl)-2-phenylthiazole]

Compound: FC1(F)C(c2cc(-c3ccc(Cl)cc3)sc2-c2ccc(Cl)cc2)=C(c2cc(-c3ccc(Cl)cc3)sc2-c2ccc(Cl)cc2)C(F)(F)C1(F)F [S056, 3,3′-(perfluorocyclopent-1-ene-1,2-diyl)bis(2,5-bis(4-chlorophenyl)thiophene)]
Absorbance at PSS, 365 nm: 0.194 | sensitivity index: 2.73 | Absorbance at PSS, full: 0.071 | Absorbance at PSS, +UV: 0.026 | λ max: 610

Compound: CC(=O)c1ccc(-c2cc(C3=C(c4cc(-c5ccccc5)sc4-c4ccc(C(C)(C)C)cc4)C(F)(F)C(F)(F)C3(F)F)c(-c3ccc(C(C)(C)C)cc3)s2)cc1 [S065, 1-(4-(5-(4-tert-butylphenyl)-4-(2-(2-(4-tert-butylphenyl)-5-phenylthiophen-3-yl)-3,3,4,4,5,5-hexafluorocyclopent-1-enyl)thiophen-2-yl)phenyl)ethanone]
Absorbance at PSS, 365 nm: 0.281 | sensitivity index: 2.04 | Absorbance at PSS, full: 0.138 | Absorbance at PSS, +UV: 0.054 | λ max: 625

Compound: CC(C)(C)c1ccc(-c2sc(-c3ccc(C(C)(C)O)cc3)cc2C2=C(c3cc(-c4ccc(C(C)(C)O)cc4)sc3-c3ccc(C(C)(C)C)cc3)C(F)(F)C(F)(F)C2(F)F)cc1 [S067, 2,2′-((4,4′-(perfluorocyclopent-1-ene-1,2-diyl)bis(5-(4-(tert-butyl)phenyl)thiophene-4,2-diyl))bis(4,1-phenylene))bis(propan-2-ol)]
Absorbance at PSS, 365 nm: 0.182 | sensitivity index: 2.68 | Absorbance at PSS, full: 0.068 | Absorbance at PSS, +UV: 0.03 | λ max: 615

Compound: CC(C)(C)c1ccc(-c2sc(C(C)(C)C)cc2C2=C(c3cc(C(C)(C)C)sc3-c3ccc(C(C)(C)C)s3)C(F)(F)C(F)(F)C2(F)F)s1 [S073, 3,3′-(perfluorocyclopent-1-ene-1,2-diyl)bis(5,5′-di-tert-butyl-2,2′-bithiophene)]
Absorbance at PSS, 365 nm: 0.06 | sensitivity index: 5.71 | Absorbance at PSS, full: 0.0105 | Absorbance at PSS, +UV: 0.006 | λ max: 550

Compound: N#Cc1ccc(-c2cc(C3=C(c4cc(-c5ccc(C#N)cc5)sc4-c4ccc(C#N)cc4)C(F)(F)C(F)(F)C3(F)F)c(-c3ccc(C#N)cc3)s2)cc1 [S074, 3,3′-(perfluorocyclopent-1-ene-1,2-diyl)bis(2,5-bis(4-cyanophenyl)thiophene)]
Absorbance at PSS, 365 nm: 0.189 | sensitivity index: 2.74 | Absorbance at PSS, full: 0.069 | Absorbance at PSS, +UV: 0.024 | λ max: 620

Compound: COc1ccc(-c2oc3ccc(OC)cc3c2C2=C(c3c(-c4ccc(OC)cc4)oc4ccc(OC)cc34)C(F)(F)C(F)(F)C2(F)F)cc1 [S083]
Absorbance at PSS, 365 nm: 0.167 | sensitivity index: 7.26 | Absorbance at PSS, full: 0.023 | Absorbance at PSS, +UV: 0.008 | λ max: 550

Compound: Oc1ccc(-c2cc(C3=C(c4cc(-c5ccc(O)cc5)sc4-c4ccc(O)cc4)C(F)(F)C(F)(F)C3(F)F)c(-c3ccc(O)cc3)s2)cc1 [S084, 3,3′-(perfluorocyclopent-1-ene-1,2-diyl)bis(2,5-bis(4-hydroxyphenyl)thiophene)]
Absorbance at PSS, 365 nm: 0.23 | sensitivity index: 2.56 | Absorbance at PSS, full: 0.09 | Absorbance at PSS, +UV: 0.051 | λ max: 625

Compound: COc1ccc(-c2sc(-c3ccc(C#N)cc3)cc2C2=C(c3cc(-c4ccc(C#N)cc4)sc3-c3ccc(OC)cc3)C(F)(F)C(F)(F)C2(F)F)cc1 [S085]
Absorbance at PSS, 365 nm: 0.187 | sensitivity index: 1.16 | Absorbance at PSS, full: 0.161 | Absorbance at PSS, +UV: 0.08 | λ max: 640

Compound: COc1ccc(-c2cc(C3=C(c4cc(-c5ccc(OC)cc5)sc4-c4ccc(C#N)cc4)C(F)(F)C(F)(F)C3(F)F)c(-c3ccc(C#N)cc3)s2)cc1 [S086, 4,4′-(3,3′-(perfluorocyclopent-1-ene-1,2-diyl)bis(5-(4-methoxyphenyl)thiophene-3,2-diyl))dibenzonitrile]
Absorbance at PSS, 365 nm: 0.231 | sensitivity index: 2.01 | Absorbance at PSS, full: 0.115 | Absorbance at PSS, +UV: 0.071 | λ max: 610

Compound: COc1ccc(-c2cc(C3=C(c4cc(-c5ccc(C#N)cc5)sc4-c4ccc(OC)cc4)C(F)(F)C(F)(F)C3(F)F)c(-c3ccc(C#N)cc3)s2)cc1 [S087, 4-(3-(2-(5-(4-cyanophenyl)-2-(4-methoxyphenyl)thiophen-3-yl)-3,3,4,4,5,5-hexafluorocyclopent-1-en-1-yl)-5-(4-methoxyphenyl)thiophen-2-yl)benzonitrile]
Absorbance at PSS, 365 nm: 0.209 | sensitivity index: 1.92 | Absorbance at PSS, full: 0.109 | Absorbance at PSS, +UV: 0.055 | λ max: 628

Compound: COc1ccc(-c2sc(-c3ccc(/C=C/c4ccccc4)cc3)cc2C2=C(c3cc(-c4ccc(/C=C/c5ccccc5)cc4)sc3-c3ccc(OC)cc3)C(F)(F)C(F)(F)C2(F)F)cc1 [S088, (E)-3,3′-(perfluorocyclopent-1-ene-1,2-diyl)bis(2-(4-methoxyphenyl)-5-(4-((E)-styryl)phenyl)thiophene)]
Absorbance at PSS, 365 nm: 0.457 | sensitivity index: 2.26 | Absorbance at PSS, full: 0.202 | Absorbance at PSS, +UV: 0.132 | λ max: 656

Compound: COc1ccc(-c2sc(-c3ccc(/C=C/C=C/c4ccccc4)cc3)cc2C2=C(c3cc(-c4ccc(/C=C/C=C/c5ccccc5)cc4)sc3-c3ccc(OC)cc3)C(F)(F)C(F)(F)C2(F)F)cc1 [S089, 3,3′-(perfluorocyclopent-1-ene-1,2-diyl)bis(2-(4-methoxyphenyl)-5-(4-((1E,3E)-4-phenylbuta-1,3-dien-1-yl)phenyl)thiophene)]
Absorbance at PSS, 365 nm: 0.564 | sensitivity index: 4.12 | Absorbance at PSS, full: 0.137 | Absorbance at PSS, +UV: 0.126 | λ max: 656
